# Results taken from US20260226049A1, “NITROGEN-CONTAINING HETEROCYCLIC COMPOUND, PREPARATION METHOD THEREFOR, AND USE THEREOF” (BIVISION PHARMACEUTICALS, INC, priority 2023, published 2026).
# Tested on: HT1080 cell line with high FAP expression
# Test: ^68Ga labeling and animal imaging assay (PET/CT) in tumor-bearing mice
# Format: in vivo
# Set-up: Imaging data, Muscle / Imaging data, Bone / Imaging data, Bladder / Imaging data, Tumor / Imaging data, Intestine / Imaging data, Brain / Imaging data, Heart / Imaging data, Liver / Imaging data, Lung / Imaging data, Kidney: unit not given here
# Conditions: for uptake in the tumor at 3 hours: 3 hours after injection
# Description: A. 1.0 mg of JHH7 precursor was weighed and dissolved in 0.1 M sodium acetate buffer to prepare a 1.0 mg/mL precursor solution.
# B. The Ge/Ga generator was eluted stepwise with 5 mL of 0.1 M HCl, and the highest activity fraction (0.5 mL) was collected. 0.5 mL of metal-free 0.1 M sodium acetate buffer (pH=4.5) was added. In a 1.5 mL centrifuge tube as the reaction tube, a specific amount of precursor [1000 (molecular weight)/14.94 μL (precursor solution)/mCi (radionuclide)] was added, vortex-mixed for 10 s, and heated at 95° C., 800 rpm for 15 min.
# C. The C18 Sep-Pak was activated with anhydrous ethanol, rinsed thoroughly with pure water, and the excess water was removed.
# D. The solution after the reaction was passed through the C18 Sep-Pak, rinsed with pure water, and the excess water was removed. Subsequently, the C18 Sep-Pak was eluted with ethanol, collecting approximately 10 tubes with 3 drops per tube.
# E. The final preparation should be a clear solution, prepared fresh for immediate use and limited to the same day.
# 1) The PET/CT was powered on according to the standard operating procedures, the scanning software was launched, and daily calibration was performed.
# 2) Animal anesthesia preparation was conducted, where tumor-bearing mice (supplied by Shanghai Alamo Pharmaceutical Technology Co., Ltd., HT1080 cell line with high FAP expression) were anesthetized using isoflurane.
# 3) After the loss of righting reflex in the tumor-bearing mice, the imaging agent was injected via the tail vein.
# 4) After drug administration, dynamic scanning at 1 hour and static scanning was performed at 3 hours were performed for 10 minutes.
# 5) During the process, animal body weight, injection dose, injection time, and residual dose were recorded according to the record sheet, and the time of measuring the injection dose and the time of measuring the residual dose were separately recorded.
# 6) The uptake in animal tumors, muscles, and other organs was analyzed using PMOD software.
# ^68Ga-labeled compounds JHH7 and JHH11 were imaged in tumor-bearing mice, and the results are shown in FIG. 5 and FIG. 6, with the imaging data shown in Tables 4 and 5.
# [1] = tumor-bearing mice, intravenous injection
smiles,measurement,setting,value
"N#C[C@@H]1CC(F)(F)CN1C(=O)CNC(=O)c1cc2c(s1)CCN(C(=O)CCC(=O)NCCNC(=O)CCNC(=O)CN1CCN(CC(=O)O)CCN(CC(=O)O)CCN(CC(=O)O)CC1)C2 [^68Ga-JHH11, metal not drawn]","Imaging data, Bladder",5 min,4.24
same,"Imaging data, Bone",5 min,0.92
same,"Imaging data, Brain",5 min,0.98
same,"Imaging data, Heart",5 min,8.61
same,"Imaging data, Intestine",5 min,1.96
same,"Imaging data, Kidney",5 min,13.43
same,"Imaging data, Liver",5 min,5.43
same,"Imaging data, Lung",5 min,3.12
same,"Imaging data, Muscle",5 min,0.82
same,"Imaging data, Tumor",5 min,1.06
same,"Imaging data, Bladder",10 min,17.03
same,"Imaging data, Bone",10 min,1.68
same,"Imaging data, Brain",10 min,0.66
same,"Imaging data, Heart",10 min,4.33
same,"Imaging data, Intestine",10 min,1.99
same,"Imaging data, Kidney",10 min,15.81
same,"Imaging data, Liver",10 min,3.56
same,"Imaging data, Lung",10 min,2.08
same,"Imaging data, Muscle",10 min,1.22
same,"Imaging data, Tumor",10 min,2.47
same,"Imaging data, Bladder",15 min,27.04
same,"Imaging data, Bone",15 min,1.17
same,"Imaging data, Brain",15 min,0.59
same,"Imaging data, Heart",15 min,3.22
same,"Imaging data, Intestine",15 min,1.66
same,"Imaging data, Kidney",15 min,20.15
same,"Imaging data, Liver",15 min,2.78
same,"Imaging data, Lung",15 min,1.97
same,"Imaging data, Muscle",15 min,1.16
same,"Imaging data, Tumor",15 min,3.26
same,"Imaging data, Bladder",20 min,45.38
same,"Imaging data, Bone",20 min,1.08
same,"Imaging data, Brain",20 min,0.55
same,"Imaging data, Heart",20 min,2.72
same,"Imaging data, Intestine",20 min,1.54
same,"Imaging data, Kidney",20 min,13.33
same,"Imaging data, Liver",20 min,2.44
same,"Imaging data, Lung",20 min,1.88
same,"Imaging data, Muscle",20 min,0.98
same,"Imaging data, Tumor",20 min,3.87
same,"Imaging data, Bladder",25 min,60.89
same,"Imaging data, Bone",25 min,1.22
same,"Imaging data, Brain",25 min,0.45
same,"Imaging data, Heart",25 min,2.29
same,"Imaging data, Intestine",25 min,1.30
same,"Imaging data, Kidney",25 min,8.42
same,"Imaging data, Liver",25 min,2.16
same,"Imaging data, Lung",25 min,1.47
same,"Imaging data, Muscle",25 min,0.75
same,"Imaging data, Tumor",25 min,4.30
same,"Imaging data, Bladder",30 min,73.70
same,"Imaging data, Bone",30 min,0.82
same,"Imaging data, Brain",30 min,0.41
same,"Imaging data, Heart",30 min,1.98
same,"Imaging data, Intestine",30 min,1.22
same,"Imaging data, Kidney",30 min,5.54
same,"Imaging data, Liver",30 min,2.05
same,"Imaging data, Lung",30 min,1.48
same,"Imaging data, Muscle",30 min,0.65
same,"Imaging data, Tumor",30 min,4.60
same,"Imaging data, Bladder",1.5 h,265.50
same,"Imaging data, Bone",1.5 h,0.50
same,"Imaging data, Brain",1.5 h,0.03
same,"Imaging data, Heart",1.5 h,0.20
same,"Imaging data, Intestine",1.5 h,0.62
same,"Imaging data, Kidney",1.5 h,1.00
same,"Imaging data, Liver",1.5 h,0.78
same,"Imaging data, Lung",1.5 h,0.58
same,"Imaging data, Muscle",1.5 h,0.37
same,"Imaging data, Tumor",1.5 h,4.40
same,"Imaging data, Bladder",3 h,4.50
same,"Imaging data, Bone",3 h,0.02
same,"Imaging data, Brain",3 h,0.04
same,"Imaging data, Heart",3 h,0.12
same,"Imaging data, Intestine",3 h,0.08
same,"Imaging data, Kidney",3 h,0.46
same,"Imaging data, Liver",3 h,0.82
same,"Imaging data, Lung",3 h,0.25
same,"Imaging data, Muscle",3 h,0.08
same,"Imaging data, Tumor",3 h,2.30
same,uptake in the tumor at 3 hours,,tumor uptake was still observed
same,metabolism and excretion from the mice,after injection,rapidly metabolized and excreted from the mice
same,time of peak tumor uptake after injection,[1],30 min
N#C[C@@H]1CC(F)(F)CN1C(=O)CNC(=O)c1ccc2c(c1)CN(C(=O)CCC(=O)NCCNC(=O)CCC(C(=O)O)N1CCN(CC(=O)[O-])CCN(CC(=O)[O-])CCN(CC(=O)[O-])CC1)C2.[68Ga+3] (stereo partly drawn) [^68Ga-JHH7],"Imaging data, Bladder",5 min,3.02
same,"Imaging data, Bone",5 min,0.17
same,"Imaging data, Brain",5 min,0.90
same,"Imaging data, Heart",5 min,4.61
same,"Imaging data, Intestine",5 min,0.47
same,"Imaging data, Kidney",5 min,6.73
same,"Imaging data, Liver",5 min,1.71
same,"Imaging data, Lung",5 min,1.78
same,"Imaging data, Muscle",5 min,0.81
same,"Imaging data, Tumor",5 min,0.91
same,"Imaging data, Bladder",10 min,49.75
same,"Imaging data, Bone",10 min,0.28
same,"Imaging data, Brain",10 min,0.82
same,"Imaging data, Heart",10 min,2.19
same,"Imaging data, Intestine",10 min,0.21
same,"Imaging data, Kidney",10 min,5.59
same,"Imaging data, Liver",10 min,0.88
same,"Imaging data, Lung",10 min,0.94
same,"Imaging data, Muscle",10 min,1.56
same,"Imaging data, Tumor",10 min,2.47
same,"Imaging data, Bladder",15 min,84.10
same,"Imaging data, Bone",15 min,0.30
same,"Imaging data, Brain",15 min,0.59
same,"Imaging data, Heart",15 min,1.43
same,"Imaging data, Intestine",15 min,0.23
same,"Imaging data, Kidney",15 min,3.87
same,"Imaging data, Liver",15 min,0.50
same,"Imaging data, Lung",15 min,0.79
same,"Imaging data, Muscle",15 min,1.42
same,"Imaging data, Tumor",15 min,3.36
same,"Imaging data, Bladder",20 min,109.69
same,"Imaging data, Bone",20 min,0.18
same,"Imaging data, Brain",20 min,0.55
same,"Imaging data, Heart",20 min,1.01
same,"Imaging data, Intestine",20 min,0.22
same,"Imaging data, Kidney",20 min,3.35
same,"Imaging data, Liver",20 min,0.38
same,"Imaging data, Lung",20 min,0.45
same,"Imaging data, Muscle",20 min,1.30
same,"Imaging data, Tumor",20 min,3.88
same,"Imaging data, Bladder",25 min,145.55
same,"Imaging data, Bone",25 min,0.17
same,"Imaging data, Brain",25 min,0.48
same,"Imaging data, Heart",25 min,0.94
same,"Imaging data, Intestine",25 min,0.15
same,"Imaging data, Kidney",25 min,2.74
same,"Imaging data, Liver",25 min,0.23
same,"Imaging data, Lung",25 min,0.28
same,"Imaging data, Muscle",25 min,1.29
same,"Imaging data, Tumor",25 min,4.70
same,"Imaging data, Bladder",30 min,157.22
same,"Imaging data, Bone",30 min,0.10
same,"Imaging data, Brain",30 min,0.46
same,"Imaging data, Heart",30 min,0.72
same,"Imaging data, Intestine",30 min,0.16
same,"Imaging data, Kidney",30 min,2.88
same,"Imaging data, Liver",30 min,0.25
same,"Imaging data, Lung",30 min,0.37
same,"Imaging data, Muscle",30 min,0.97
same,"Imaging data, Tumor",30 min,5.00
same,"Imaging data, Bladder",1.5 h,89.40
same,"Imaging data, Bone",1.5 h,0.53
same,"Imaging data, Brain",1.5 h,0.23
same,"Imaging data, Heart",1.5 h,0.45
same,"Imaging data, Intestine",1.5 h,0.92
same,"Imaging data, Kidney",1.5 h,0.71
same,"Imaging data, Liver",1.5 h,0.52
same,"Imaging data, Lung",1.5 h,0.54
same,"Imaging data, Muscle",1.5 h,0.17
same,"Imaging data, Tumor",1.5 h,6.40
same,"Imaging data, Bladder",3 h,7.50
same,"Imaging data, Bone",3 h,0.14
same,"Imaging data, Brain",3 h,0.12
same,"Imaging data, Heart",3 h,0.21
same,"Imaging data, Intestine",3 h,0.60
same,"Imaging data, Kidney",3 h,0.55
same,"Imaging data, Liver",3 h,0.43
same,"Imaging data, Lung",3 h,0.55
same,"Imaging data, Muscle",3 h,0.19
same,"Imaging data, Tumor",3 h,5.20
same,uptake in the tumor at 3 hours,,a certain amount of uptake in the tumor was still observed
same,time of peak uptake in the tumor after injection,[1],1.5 h
